In ChEMBL document CHEMBL1150831, “Immunosuppressive sesquiterpene alkaloids from Tripterygium wilfordii” (2001) one finds inhibition data, which are given here for 18 compounds.

Type in all cases: functional
Test [1] concerns PBMC. Put plainly: Immunosuppressive activity in human PBMC assessed as inhibition of LPS-stimulated IL8 production at 10 ug/mL after 18 to 24 hrs by ELISA.
Test [2] concerns PBMC. Description: Immunosuppressive activity in human PBMC assessed as inhibition of LPS-stimulated IL4 production at 10 ug/mL after 18 to 24 hrs by ELISA.
The test system of test [3] is PBMC. Description: Immunosuppressive activity in human PBMC assessed as inhibition of LPS-stimulated IL1-beta production at 10 ug/mL after 18 to 24 hrs by ELISA.
For test [4], the system named is PBMC. Put plainly: Immunosuppressive activity in human PBMC assessed as inhibition of LPS-stimulated TNFalpha production at 10 ug/mL after 18 to 24 hrs by ELISA.
Test [5] relates to PBMC. Put plainly: Immunosuppressive activity in human PBMC assessed as inhibition of LPS-stimulated IL2 production at 10 ug/mL after 18 to 24 hrs by ELISA.
In test [6] the test system is PBMC. Put plainly: Immunosuppressive activity in human PBMC assessed as inhibition of LPS-stimulated IFN-gamma production at 10 ug/mL after 18 to 24 hrs by ELISA.

The source made the active and inactive calls. The calls are words filed in the database; no cut-off is given here.

Take `CC(=O)OC[C@]12[C@H](OC(C)=O)[C@H](OC(C)=O)[C@@H]3[C@@H](OC(C)=O)[C@@]14O[C@@]3(C)COC(=O)c1cccnc1C(C)C(C)C(=O)O[C@@H]([C@H](OC(C)=O)[C@@H]2OC(=O)c1ccccc1)[C@]4(C)O` (stereo partly drawn) [MAYTEINE]: the inhibition at 10 µg/mL in test [1] is 2%; in test [2], 14%; in test [3] it was 2%; in test [4], -9%; in test [5], 55%; in test [6], 36%.
Regarding `CC(=O)OC[C@]12[C@H](OC(C)=O)[C@H](OC(C)=O)[C@@H]3[C@@H](OC(=O)c4ccccc4)[C@@]14O[C@@]3(C)COC(=O)c1cnccc1C(C)C(C)(O)C(=O)O[C@@H]([C@H](OC(=O)c1ccccc1)[C@@H]2OC(C)=O)[C@]4(C)O` (stereo partly drawn), the inhibition entry in test [1], in test [2], in test [3], in test [4], in test [5] and in test [6] was “inactive” each time.
With `CC(=O)OC[C@]12[C@H](OC(C)=O)C(=O)[C@@H]3[C@@H](OC(C)=O)[C@@]14O[C@@]3(C)COC(=O)c1cccnc1CC[C@@](C)(O)C(=O)O[C@@H]([C@H](OC(C)=O)[C@@H]2OC(C)=O)[C@]4(C)O`, the inhibition result in test [1], in test [2], in test [3], in test [4], in test [5] and in test [6] was “inactive” in each case.
Consider `CC(=O)OC[C@]12[C@H](OC(C)=O)[C@H](OC(C)=O)[C@@H]3[C@@H](OC(=O)c4ccccc4)[C@@]14O[C@@]3(C)COC(=O)c1cccnc1C(C)C(C)C(=O)O[C@@H]([C@H](OC(C)=O)[C@@H]2OC(C)=O)[C@]4(C)O` (stereo partly drawn), for which the inhibition at 10 µg/mL in test [1] came to 84%; in test [2] it was 100%; in test [3], 43%; in test [4] it was 37%; in test [5], 100%; in test [6] it was 99%.
Turning to `CC(=O)OC[C@]12[C@H](OC(C)=O)[C@H](OC(C)=O)[C@@H]3[C@@H](OC(C)=O)[C@@]14O[C@@]3(C)COC(=O)c1cnccc1C(C)C(C)(O)C(=O)O[C@@H]([C@H](OC(=O)c1ccccc1)[C@@H]2OC(C)=O)[C@]4(C)O` (stereo partly drawn) [HYPOGLAUNINE C], the inhibition at 10 µg/mL is -26% in test [1]; 51% in test [2]; 2% in test [3]; -28% in test [4]; 57% in test [5]; 20% in test [6].
With `CC(=O)OC[C@]12[C@H](OC(C)=O)[C@H](OC(C)=O)[C@@H]3[C@@H](OC(C)=O)[C@@]14O[C@@]3(C)COC(=O)c1cnccc1C(C)C(C)C(=O)O[C@@H]([C@H](OC(C)=O)[C@@H]2O)[C@]4(C)O` (stereo partly drawn), the inhibition entry in test [1], in test [2], in test [3], in test [4], in test [5] and in test [6] was “inactive” each time.
For the compound `CC(=O)OC[C@]12[C@H](OC(C)=O)C(=O)[C@@H]3[C@@H](OC(C)=O)[C@@]14O[C@@]3(C)COC(=O)c1cnccc1CCC(C)(O)C(=O)O[C@@H]([C@H](OC(C)=O)[C@@H]2OC(C)=O)[C@]4(C)O` (stereo partly drawn), the inhibition at 10 µg/mL in test [1] came out at 64%; in test [2] it was 77%; in test [3] it was 18%; in test [4] it was 10%; in test [5], 47%; in test [6], 62%.
On to `CC(=O)OC[C@]12[C@H](OC(C)=O)[C@H](OC(C)=O)[C@@H]3[C@@H](O)[C@@]14O[C@@]3(C)COC(=O)c1cccnc1CC[C@@](C)(OC(=O)c1ccccc1)C(=O)O[C@@H]([C@H](OC(C)=O)[C@@H]2OC(C)=O)[C@]4(C)O` [WILFORNINE B], for which the inhibition at 10 µg/mL is -23% in test [1]; 100% in test [2]; -3% in test [3]; -6% in test [4]; 22% in test [5]; 7% in test [6].
Take `CC(=O)OC[C@]12[C@H](OC(C)=O)[C@H](OC(C)=O)[C@@H]3[C@@H](OC(C)=O)[C@@]14O[C@@]3(C)COC(=O)c1cccnc1CC[C@H](C)C(=O)O[C@@H]([C@H](OC(C)=O)[C@@H]2OC(C)=O)[C@]4(C)O` [WILFORMINE]: the inhibition at 10 µg/mL in test [1] worked out at 60%; in test [2], 77%; in test [3], 14%; in test [4], 20%; in test [5], 50%; in test [6] it was 71%.
Take `CC(=O)OC[C@]12[C@H](OC(C)=O)[C@H](OC(C)=O)[C@@H]3[C@@H](OC(C)=O)[C@@]14O[C@@]3(C)COC(=O)c1cccnc1CC[C@@](C)(OC(=O)c1ccccc1)C(=O)O[C@@H]([C@H](OC(C)=O)[C@@H]2OC(C)=O)[C@]4(C)O` [WILFORNINE A]: the inhibition at 10 µg/mL in test [1] is 2%; in test [2], 50%; in test [3], -4%; in test [4], 0%; in test [5], 23%; in test [6], 8%.
On to `CC(=O)OC[C@]12[C@H](OC(C)=O)[C@H](OC(C)=O)[C@@H]3[C@@H](OC(=O)c4ccccc4)[C@@]14O[C@@]3(C)COC(=O)c1cccnc1CC[C@@](C)(OC(=O)c1ccccc1)C(=O)O[C@@H]([C@H](OC(C)=O)[C@@H]2OC(C)=O)[C@]4(C)O` [WILFORNINE C], for which the inhibition at 10 µg/mL in test [1] was -8%; in test [2], 39%; in test [3] it was -6%; in test [4], -11%; in test [5] it was 51%; in test [6] it was 32%.
As for `COC(=O)C[C@@H]1C(=O)CCC(C)C(=O)O[C@@H]2[C@@H]3[C@@H](OC(C)=O)[C@@]45O[C@@]3(C)COC(=O)c3cccnc3C(C)C(C)C(=O)O[C@@H]([C@H](OC(C)=O)[C@H](OC(C)=O)[C@@]4(COC1=O)[C@@H]2OC(C)=O)[C@]5(C)O` (stereo partly drawn) [TRIPTONINE A], the inhibition at 10 µg/mL in test [1] was 43%; in test [2] it was -20%; in test [3], 55%; in test [4], 62%; in test [5], 33%; in test [6], 17%.
As for `CC(=O)OC[C@]12[C@H](OC(C)=O)[C@H](OC(C)=O)[C@@H]3[C@@H](OC(C)=O)[C@@]14O[C@@]3(C)COC(=O)c1cccnc1CC[C@@](C)(O)C(=O)O[C@@H]([C@H](OC(C)=O)[C@@H]2OC(C)=O)[C@]4(C)O`, the inhibition entry in test [1], in test [2], in test [3], in test [4], in test [5] and in test [6] was “inactive” throughout.
`CC(=O)OC[C@]12[C@H](OC(C)=O)[C@H](OC(C)=O)[C@@H]3[C@@H](OC(C)=O)[C@@]14O[C@@]3(C)COC(=O)c1cccnc1C(C)C(C)C(=O)O[C@@H]([C@H](OC(C)=O)[C@@H]2OC(C)=O)[C@]4(C)O` (stereo partly drawn) [EUONYMINE]: the inhibition at 10 µg/mL amounted to 31% in test [1]; 11% in test [2]; 47% in test [3]; 55% in test [4]; 53% in test [5]; 28% in test [6].
Take `CC(=O)OC[C@]12[C@H](OC(C)=O)[C@H](OC(C)=O)[C@@H]3[C@@H](OC(=O)c4ccccc4)[C@@]14O[C@@]3(C)COC(=O)c1cccnc1C(C)C(C)C(=O)O[C@@H]([C@H](O)[C@@H]2OC(C)=O)[C@]4(C)O` (stereo partly drawn): the inhibition result in test [1], in test [2], in test [3], in test [4], in test [5] and in test [6] was “inactive” each time.
With `CC(=O)OC[C@]12[C@H](OC(C)=O)[C@H](OC(C)=O)[C@@H]3[C@@H](OC(C)=O)[C@@]14O[C@@]3(C)COC(=O)c1cccnc1CC[C@@](C)(OC(=O)c1ccco1)C(=O)O[C@@H]([C@H](OC(C)=O)[C@@H]2OC(C)=O)[C@]4(C)O`, the inhibition entry in test [1], in test [2], in test [3], in test [4], in test [5] and in test [6] was “inactive” throughout.
Take `CC(=O)OC[C@]12[C@H](OC(C)=O)[C@H](OC(C)=O)[C@@H]3[C@@H](OC(C)=O)[C@@]14O[C@@]3(C)COC(=O)c1cccnc1CC[C@H](C)C(=O)O[C@@H]([C@H](OC(=O)c1ccccc1)[C@@H]2OC(C)=O)[C@]4(C)O`: the inhibition at 10 µg/mL in test [1] turned out to be 1%; in test [2] it was 16%; in test [3], 64%; in test [4], 79%; in test [5], 67%; in test [6], 41%.
Take `CC(=O)OC[C@]12[C@H](OC(C)=O)[C@H](OC(C)=O)[C@@H]3[C@@H](OC(=O)c4ccccc4)[C@@]14O[C@@]3(C)COC(=O)c1cccnc1C(C)C(C)C(=O)O[C@@H]([C@H](OC(=O)c1cccnc1)[C@@H]2OC(C)=O)[C@]4(C)O` (stereo partly drawn) [HYPONINE D]: the inhibition at 10 µg/mL in test [1] is -15%; in test [2], 66%; in test [3] it was 7%; in test [4] it was -9%; in test [5], 45%; in test [6], 13%.
